This is an account of results in patent US20250099626A1, “COMPOSITIONS AND METHODS FOR OXONOL DYES WITH NEAR INFRARED FLUORESCENCE” (Washington University, priority 2023, published 2025).

Data set [1] is described as follows: Relative fluorescence quantum yield using ICG as a standard. Particulars: DMSO. It counts as physicochemical. The protocol: The absorption spectra of 4 and 15 were measured in both methanol (FIG. 4(A-B)) and DMSO (FIG. 5(A-D)). […] The broad emission bands allow flexibility in the choice of excitation and fluorescence wavelengths in analytical and biological assays. The relative fluorescence quantum yields of dyes 4 and 15 measured in DMSO using ICG as a standard show the values of 0.24 and 0.093 respectively compared to 0.12 for ICG.

Data set [2] in a line: Fluorescence lifetime (FLT) by time-correlated single photon counting. Format: physicochemical. On the procedure:
Fluorescence lifetimes (FLT) were measured using time-correlated single photon counting (TCSPC implemented in Fluorolog-3, Horiba Jobin Yvon) with a 700 nm excitation source NanoLed® (impulse repetition rate 1 MHz) at 90° to the PMT R928P detector (Hamamatsu Photonics, Japan). […] We chose DMSO as the solvent for this study because it provides a similar environment to the biological systems. The detector was set to 740 nm with a 20 nm bandpass and data were collected until the peak signal reached 10,000 counts.

In another data set the test system is SKBR3-GFP-Luc cells. Kind of data set: Cellular fluorescence intensity imaging (NIR channel) of dye uptake. It counts as cell-based, human. Particulars: 5 μM, 24 h incubation. The protocol: SKBR3-GFP-Luc cells (Dual labeled stable SK-BR-3 expressing green fluorescent protein (GFP) and luciferase, SL032, GeneCopoeia, Rockville, MD) were cultured in Dulbecco's Modified Eagle Medium (DMEM high glucose, Gibco) supplemented with 10% Fetal Bovine Serum (FBS), 1% penicillin/streptomycin and 5 μg/mL puromycin, and maintained in a humidified incubator at 37° C. with 5% CO2 atmosphere. For imaging experiments, these GFP labeled HER2+ human breast cancer cells were plated in Fluorobrite DMEM media (Gibco) supplemented with 10% FBS and 1% pen/strep in an 8-well chamber slide (6.0×10^4 cells in 200 μL media per well). […] All cells were washed with DPBS (300 μL×2) before mounting (Fluoromount-G, #1 coverslip) and imaging the slides with either a Zeiss AxioImager Z2 fluorescence microscope or FLIM.
Fluorescence intensity imaging was conducted on a Zeiss Axioimager.Z2 microscope equipped with a Hamamatsu ORCA Flash 4.0 V2 camera, X-Cite Xylis LED-based light source, and 20× Zeiss Plan-Apochromat air objective (0.8 N.A.) The imaging parameters included DAPI: excitation 335-383 nm/emission 420-470 nm/exposure time […] GFP: ex 450-490 nm/500-550 nm/46 ms exposure and NIR: ex 715-752 nm/760-855 nm/1 s exposure. […]

The nature of data set [3]: Absorption and fluorescence emission spectra of the dyes in solvent. It counts as physicochemical. The settings on record: for Emission max, nm: excitation 700 nm. On the procedure: Absorption spectra were recorded on a Beckman Coulter DU 640 UV-visible spectrophotometer (Brea, CA) and fluorescence spectra were recorded on a Fluorolog-3 spectrofluorometer (Horiba Jobin Yvon, Inc., Edison, NJ). All fluorescence measurements were conducted at room temperature and were recorded at excitation of 700 nm and emission scan from 715-900 nm.

A short description of the next data set: Solubility in water. Format: physicochemical.
For data set [4] the following is noted: DMSO; reference value of ICG standard; cited from earlier work.

Consider `O=c1cc2/c(=C/C=C/C=C/c3c4c5c(cc(O)cc5oc3=O)OC(O)=C4)c(=O)oc3cc(O)cc(o1)c32` [Dye 4], for which, in data set [1], the “Quantum yield (relative fluorescence quantum yield)” value is on record as 0.24. Also, the “Fluorescent lifetime, ns” value in data set [2] (DMSO, 700 nm excitation, detector 740 nm) turned out to be 0.65 ns; in data set [2] (Methanol) it was 0.28 ns. Further, the “Cellular internalization / uptake judged by signal intensity in NIR channel” value in the data set with SKBR3-GFP-Luc cells was “essentially no appreciable uptake”. Besides, the “Abs max, nm” value in data set [3] (DMSO) is reported as 719 nm; in data set [3] (Methanol), 704 nm. The figures for the “Emission max, nm” value in data set [3] (DMSO) and in data set [3] (Methanol) were 744 nm and 731 nm, respectively. Besides, the Solubility in water entry in the data set “Solubility in water” was “low solubility in water”.

Turning to `CC1(C)C(/C=C/C=C/C=C/C=C2\N(CCCCS(=O)(=O)O)c3ccc4ccccc4c3C2(C)C)=[N+](CCCCS(=O)(=O)[O-])c2ccc3ccccc3c21` [ICG, indocyanine green], the “Fluorescence quantum yield of the standard” value in data set [4] is on record as 0.12.
